For 2 compounds, Tm and ΔTm results are on record in ChEMBL document CHEMBL1140453, “Solid-phase synthesis and thermal denaturation study of cyclic PNAs targeting the HIV-1 TAR RNA loop” (Bioorg Med Chem Lett, 2007).

In test [1] the test system is Nucleic Acid. Put plainly: Binding affinity to HIV1 3B mini TAR RNA assessed as melting temperature by UV spectrometry based thermal denaturation assay. The note with it: Human immunodeficiency virus 1. Type of test: nucleic-acid assay.
Test [2] relates to Nucleic Acid. Kind of test: Binding affinity to HIV1 3B mini TAR RNA assessed as change in melting temperature by UV spectrometry based thermal denaturation assay. The format is nucleic-acid assay. The note with it: Human immunodeficiency virus 1.

On to `Cc1cn(CC(=O)N(CCNC(=O)CN(CCNC(=O)[C@@H](N)CCCCN)C(=O)Cn2cnc3c(=O)[nH]c(N)nc32)CC(=O)NCCN(CC(=O)NCCN(CC(=O)NCCN(CC(=O)NCCN(CC(=O)NCCN(CC(=O)NCCN(CC(=O)N[C@@H](CCC(N)=O)C(=O)O)C(=O)Cn2cnc3c(N)ncnc32)C(=O)Cn2cnc3c(=O)[nH]c(N)nc32)C(=O)Cn2cnc3c(N)ncnc32)C(=O)Cn2ccc(N)nc2=O)C(=O)Cn2ccc(N)nc2=O)C(=O)Cn2ccc(N)nc2=O)c(=O)[nH]c1=O`, for which, in the test with Nucleic Acid [1], the midpoint of thermal melting (Tm) came out at 40.5 °C. Further, the ΔTm with Nucleic Acid [2] was found to be 0.5 °C. In the case of `Cc1cn(CC(=O)N(CCNC(=O)CN(CCNC(=O)[C@@H](N)CCCCN)C(=O)Cn2cnc3c(=O)[nH]c(N)nc32)CC(=O)NCCN(CC(=O)NCCN(CC(=O)NCCN(CC(=O)NCCN(CC(=O)NCCN(CC(=O)NCCN(CC(=O)N[C@@H](CCC(N)=O)C(=O)O)C(=O)Cn2cnc3c(N)ncnc32)C(=O)Cn2cnc3c(=O)[nH]c(N)nc32)C(=O)Cn2cnc3c(N)ncnc32)C(=O)Cn2ccc(N)nc2=O)C(=O)Cn2cnc3c(N)ncnc32)C(=O)Cn2ccc(N)nc2=O)c(=O)[nH]c1=O`, the Tm in the test with Nucleic Acid [1] amounted to 43.2 °C.

The Tm is the temperature at which the thermal transition is half complete. The ΔTm is the change in melting temperature against a reference sample.
